Values of other authors in patent publication US20060233843A1, “Treatment of psychosis with a muscarinic m1 receptor ectopic activator” (priority 2003, published 2006).

Biological target: T1, M1 receptor, residue 381 mutated from tyrosine to alanine (Homo sapiens, UniProt P11229, Y381A)
T1 sequence (P11229 1-460 Y381A): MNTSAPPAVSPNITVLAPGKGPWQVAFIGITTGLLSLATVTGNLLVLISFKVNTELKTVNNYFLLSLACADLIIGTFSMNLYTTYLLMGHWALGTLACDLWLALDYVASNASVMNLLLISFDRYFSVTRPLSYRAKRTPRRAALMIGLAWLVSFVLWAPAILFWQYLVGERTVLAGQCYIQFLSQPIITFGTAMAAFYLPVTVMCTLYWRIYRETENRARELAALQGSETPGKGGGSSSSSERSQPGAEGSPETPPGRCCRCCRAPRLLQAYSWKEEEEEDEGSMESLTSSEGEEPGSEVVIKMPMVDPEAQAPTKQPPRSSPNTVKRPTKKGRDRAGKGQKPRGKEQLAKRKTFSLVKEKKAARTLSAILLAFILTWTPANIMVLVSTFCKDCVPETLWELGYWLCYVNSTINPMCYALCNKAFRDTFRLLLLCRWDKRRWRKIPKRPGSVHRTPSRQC
Details: M1 receptor Y381A mutant versus wild type

| Compound | effect of mutation of residue 381 from tyrosine to alanine on pharmacology | increase of ectopic agonist potency by mutation of residue 381 from tyrosine to alanine [fold] |
| --- | --- | --- |
| CCCCC1CCN(CCCC(=O)c2ccccc2C)CC1 [AC-42] | not affecting | – |
| Clc1ccc2c(c1)N=C(N1CCNCC1)c1ccccc1N2 [N-desmethylclozapine, Desmethylclozapine] | – | 8 |
